We go through 23 molecules from patent US8354436B2 (4SC Discovery GmbH, priority 2011, dated 2013).

Type in all cases: cell-based
The test system of test [1] is IL-17FF. As to the kind of experiment: IL-17FF production by PHA-stimulated human PBMC (human IL-17F ELI-Pair). As to conditions: 48 hours. How it is done:
(§1) Analysis of Proliferation of and Cytokine Production by Human PBMC Stimulated with PHA
(§2) Peripheral blood mononuclear cells (PBMC) from healthy human donors were purified using Accuspin™ System-Histopaque-1077 (Sigma) according to the protocol recommended by the manufacturer. Purified PBMC were then washed twice with phosphate-buffered saline (PBS) and resuspended in RPMI1640 culture medium supplemented with 10% dialyzed heat inactivated fetal calf serum, 1.5 mM L-glutamine, 100 U penicillin/ml, and […] (all from PAN Biotech, Aidenbach, Germany). For stimulation, PBMC were seeded at 1×10^5 cells/well, activated with 2 μg/ml phytohaemagglutinin (PHA, Sigma) and incubated with the test compounds for 48 hours. IL-17A, IL-17F and INF-γ were then determined in the culture supernatant using a Luminex BioPlex system, following the manufacturer's instructions (BioRad, Munich, Germany). For screening, compounds were used at 10, 1, 0.1 and 0.01 μM. To determine the IC50, compounds were titrated semilogarithmically.
(§3) Cytokines were determined in the aforementioned culture supernatant using the following methods: IL-17AA/AF was measured using the Luminex BioPlex system (BioRad, Munich, Germany); IL-17AA using the human homodimer IL-17A ELISA Ready Set Go Kit from eBioscience (Frankfurt, Germany); IL-17FF using the human IL-17F ELI-Pair from Hölzel DiagnosticaGmBH (Köln, Germany); and IFN-γ using the OptEIA human IFN-g ELISA from BD Bioscience (Heidelberg, Germany), all following the manufacturer's instructions.

Test [2] relates to IFN-γ. The experiment in a line: IFN-γ production by PHA-stimulated human PBMC (OptEIA human IFN-g ELISA). As to conditions: 48 hours. How it is done:
as §1, §2, §3
Background: In an ELISA, binding on a coated surface is turned into a signal by an enzyme label.

Test [3] has as its system PBMC from healthy human donors. As to the kind of experiment: T cell proliferation assay (PHA-stimulated human PBMC, BrdU ELISA). Particulars: PHA-stimulated human PBMC, 48 hours, column D, read-out: IC50 (Tcell proliferation). As for the experimental part: Cell proliferation was analysed using the BrdU based cell proliferation ELISA from Roche (Mannheim, Germany) according to the manufacturer's instructions. T Cell Proliferation Assay Peripheral blood mononuclear cells (PBMC) from healthy human donors were isolated by centrifugation over Ficoll-Hypaque (Sigma-Aldrich, Germany) according to manufacturer's instructions. Purified PBMC were washed twice with PBS and resuspended in RPMI1640 culture medium supplemented with 10% dialyzed heat inactivated fetal calf serum, 1.5 mM L-glutamine, 100 U penicillin/ml, and […] (all from PAN Biotech, Aidenbach, Germany). For stimulation, PBMC were seeded at 1×10^5 cells/well, activated with 2 μg/ml phytohaemagglutinin (PHA, Sigma) and incubated with the test compound. After 48 hours proliferation was measured using the BrdU based cell proliferation ELISA from Roche (Mannheim, Germany) according to the manual.

[4] abbreviates: PHA-stimulated human PBMC, column B, read-out: IC50 (IL-17FF).
The mark [5] stands for this setting: PHA-stimulated human PBMC, column C, read-out: IC50 (IFNγ).

Where two headings read alike, the source gives them in different places.

On to `CNC(=O)c1c(-c2c(F)cccc2Cl)noc1-c1cnn(-c2cccc(NC(C)=O)c2)c1C(F)(F)F` [IB-91, 5-(1-(3-acetamidophenyl)-5-(trifluoromethyl)-1H-pyrazol-4-yl)-3-(2-chloro-6-fluorophenyl)-N-methylisoxazole-4-carboxamide], for which, in test [1] (setting [4]), the IC50 lay in the range of 1000 to 10000 nM.

In the case of `Fc1cc(F)c(F)c(-n2ncc(-c3onc(-c4c(F)cccc4Cl)c3Br)c2C(F)(F)F)c1F` [Example I-144, 4-bromo-3-(2-chloro-6-fluorophenyl)-5-(1-(2,3,5,6-tetrafluorophenyl)-5-(trifluoromethyl)-1H-pyrazol-4-yl)isoxazole], the IC50 in test [1] (setting [4]) and in test [2] (setting [5]) was 1000 to 10000 nM each time. As to `CNC(=O)c1c(-c2c(F)cccc2Cl)noc1-c1cnn(-c2ccccc2OC)c1C(F)(F)F` [Example I-60, 3-(2-chloro-6-fluorophenyl)-5-(1-(2-methoxyphenyl)-5-(trifluoromethyl)-1H-pyrazol-4-yl)-N-methylisoxazole-4-carboxamide], the IC50 in test [1] (setting [4]) and in test [2] (setting [5]) was 1000 to 10000 nM each time.

On to `COC(=O)c1c(-c2c(F)cccc2Cl)noc1-c1cnn(-c2ccccc2OC)c1C(F)(F)F` [Example I-52, methyl 3-(2-chloro-6-fluorophenyl)-5-(1-(2-methoxyphenyl)-5-(trifluoromethyl)-1H-pyrazol-4-yl)isoxazole-4-carboxylate], for which the IC50 in test [1] (setting [4]) and in test [2] (setting [5]) was 100 to 1000 nM in each case. `CON(C)C(=O)c1c(-c2c(F)cccc2Cl)noc1-c1cnn(-c2cccc(S(N)(=O)=O)c2)c1C(F)(F)F` [IB-66, 3-(2-chloro-6-fluorophenyl)-N-methoxy-N-methyl-5-(1-(3-sulfamoylphenyl)-5-(trifluoromethyl)-1H-pyrazol-4-yl)isoxazole-4-carboxamide]: the IC50 in test [1] (setting [4]) and in test [2] (setting [5]) was 1000 to 10000 nM each time. For `Fc1cccc(-n2ncc(-c3onc(-c4c(F)cccc4Cl)c3C(=S)N3CCOCC3)c2C(F)(F)F)c1` [Example I-129, (3-(2-chloro-6-fluorophenyl)-5-(1-(3-fluorophenyl)-5-(trifluoromethyl)-1H-pyrazol-4-yl)isoxazol-4-yl)(morpholino)meth-anethione], the IC50 in test [1] (setting [4]) lay in the range of 1000 to 10000 nM. As to `CNC(=O)c1c(-c2ccccc2F)noc1-c1cnn(-c2cccc(F)c2)c1C(F)(F)F` [Example I-93, 3-(2-fluorophenyl)-5-(1-(3-fluorophenyl)-5-(trifluoromethyl)-1H-pyrazol-4-yl)-N-methylisoxazole-4-carboxamide], in test [1] (setting [4]), the IC50 lay in the range of 1000 to 10000 nM. The same measure, in the same setting: for `CNC(=O)c1c(-c2c(F)cccc2Cl)noc1-c1cnn(-c2ccc(OC(F)(F)F)cc2)c1C(F)(F)F` [Example I-56, 3-(2-chloro-6-fluorophenyl)-N-methyl-5-(1-(4-(trifluoromethoxy)phenyl)-5-(trifluoromethyl)-1H-pyrazol-4-yl)isoxazole-4-carboxamide] the value was 1000 to 10000 nM.

As to `CCOC(=O)c1c(-c2c(Cl)cncc2Cl)noc1-c1cnn(-c2cccc(F)c2)c1C(F)(F)F` [IB-103, ethyl 3-(3,5-dichloropyridin-4-yl)-5-(1-(3-fluorophenyl)-5-(trifluoromethyl)-1H-pyrazol-4-yl)isoxazole-4-carboxylate], the IC50 in test [1] (setting [4]) and in test [2] (setting [5]) was 1000 to 10000 nM throughout. `CCOC(=O)c1csc(-n2ncc(-c3onc(-c4c(F)cccc4Cl)c3C(=O)OC)c2C(F)(F)F)n1` [Example I-53, methyl 3-(2-chloro-6-fluorophenyl)-5-(1-(4-(ethoxycarbonyl)thiazol-2-yl)-5-(trifluoromethyl)-1H-pyrazol-4-yl)isoxazole-4-carboxylate]: the IC50 in test [1] (setting [4]) and in test [2] (setting [5]) was 1000 to 10000 nM each time.

As for `CNC(=O)c1c(-c2c(F)cccc2Cl)noc1-c1cnn(-c2ccccc2Cl)c1C(F)(F)F` [IB-50, 3-(2-chloro-6-fluorophenyl)-5-(1-(2-chlorophenyl)-5-(trifluoromethyl)-1H-pyrazol-4-yl)-N-methylisoxazole-4-carboxamide], the IC50 in test [1] (setting [4]) was in the range of 1000 to 10000 nM.

Turning to `COC(=O)c1c(-c2c(F)cccc2Cl)noc1-c1cnn(-c2ccc(S(N)(=O)=O)cc2)c1C(F)(F)F` [Example I-86, methyl 3-(2-chloro-6-fluorophenyl)-5-(1-(4-sulfamoylphenyl)-5-(trifluoromethyl)-1H-pyrazol-4-yl)isoxazole-4-carboxylate], the IC50 in test [1] (setting [4]) and in test [2] (setting [5]) was 1000 to 10000 nM in each case. As to `CNC(=O)c1c(-c2cccc(F)c2)noc1-c1cnn(-c2cccc(F)c2)c1C(F)(F)F` [Example I-105, 3-(3-fluorophenyl)-5-(1-(3-fluorophenyl)-5-(trifluoromethyl)-1H-pyrazol-4-yl)-N-methylisoxazole-4-carboxamide], the IC50 in test [1] (setting [4]) and in test [2] (setting [5]) was 1000 to 10000 nM each time. With `CNC(=O)c1c(-c2c(F)cccc2Cl)noc1-c1cnn(-c2cc(F)cc(F)c2)c1C(F)(F)F` [Example I-58, 3-(2-chloro-6-fluorophenyl)-5-(1-(3,5-difluorophenyl)-5-(trifluoromethyl)-1H-pyrazol-4-yl)-N-methylisoxazole-4-carboxamide], the IC50 lay within 1000 to 10000 nM in test [1] (setting [4]) and 100 to 1000 nM in test [2] (setting [5]). The matching figures for `CNC(=O)c1c(-c2c(F)cccc2Cl)noc1-c1cnn(CC(C)C)c1C(F)(F)F` [Example I-37, 3-(2-chloro-6-fluorophenyl)-5-(1-isobutyl-5-(trifluoromethyl)-1H-pyrazol-4-yl)-N-methylisoxazole-4-carboxamide]: 100 to 1000 nM and 1000 to 10000 nM. For `NS(=O)(=O)c1cccc(-n2ncc(-c3onc(-c4c(F)cccc4Cl)c3C(=O)N3CCCO3)c2C(F)(F)F)c1` [IB-65, 3-(4-(3-(2-chloro-6-fluorophenyl)-4-(isoxazolidine-2-carbonyl)isoxazol-5-yl)-5-(trifluoromethyl)-1H-pyrazol-1-yl)benzenesulfonamide], in that order: 1000 to 10000 nM and 1000 to 10000 nM. In the case of `CCOC(=O)c1c(-c2ccc(Cl)cc2)noc1-c1cnn(-c2ccc(F)cc2)c1C(F)(F)F` [Example I-78, ethyl 3-(4-chlorophenyl)-5-(1-(4-fluorophenyl)-5-(trifluoromethyl)-1H-pyrazol-4-yl)isoxazole-4-carboxylate], the IC50 in test [1] (setting [4]) fell in the range of 1000 to 10000 nM. Regarding `CNC(=O)c1c(-c2ccccc2)noc1-c1cnn(-c2cc(F)cc(F)c2)c1C(F)(F)F` [Example I-113, 5-(1-(3,5-difluorophenyl)-5-(trifluoromethyl)-1H-pyrazol-4-yl)-N-methyl-3-phenylisoxazole-4-carboxamide], the IC50 in test [1] (setting [4]) and in test [2] (setting [5]) was 1000 to 10000 nM in each case. As for `CC(=O)Nc1cccc(-n2ncc(-c3onc(-c4c(F)cccc4Cl)c3-c3nnco3)c2C(F)(F)F)c1` [Example B-13, N-(3-(4-(3-(2-chloro-6-fluorophenyl)-4-(1,3,4-oxadiazol-2-yl)isoxazol-5-yl)-5-(trifluoromethyl)-1H-pyrazol-1-yl)phenyl)acetamide], the IC50 lay in the range of 1000 to 10000 nM in test [1] (human PBMC, 2 μg/ml PHA, read-out: B: IC50 (IL-17FF)) and 1000 to 10000 nM in test [2] (human PBMC, 2 μg/ml PHA, read-out: C: IC50 (IFNγ)). In the case of `Fc1cccc(Cl)c1-c1noc(-c2cnn(-c3ccc(OC(F)(F)F)cc3)c2C(F)(F)F)c1Br` [IB-25, 4-bromo-3-(2-chloro-6-fluorophenyl)-5-(1-(4-(trifluoromethoxy)phenyl)-5-(trifluoromethyl)-1H-pyrazol-4-yl)isoxazole], in test [1] (setting [4]), the IC50 was in the range of 1000 to 10000 nM.

`NC(=O)c1c(-c2c(F)cccc2Cl)noc1-c1cnn(-c2cccc(F)c2)c1C(F)(F)F` [Example I-124, 3-(2-chloro-6-fluorophenyl)-5-(1-(3-fluorophenyl)-5-(trifluoromethyl)-1H-pyrazol-4-yl)isoxazole-4-carboxamide]: the IC50 in test [2] (setting [5]) and in test [3] was 1000 to 10000 nM each time.

For the molecule `CCOC(=O)c1c(-c2c(F)cccc2Cl)noc1-c1cnn(-c2ccc(C#N)cc2)c1C(F)(F)F` [IB-40, ethyl 3-(2-chloro-6-fluorophenyl)-5-(1-(4-cyanophenyl)-5-(trifluoromethyl)-1H-pyrazol-4-yl)-isoxazole-4-carboxylate], the IC50 in test [2] (setting [5]) and in test [3] was 1000 to 10000 nM throughout.

Consider `CNC(=O)c1c(-c2ccc(Cl)c(Cl)c2)noc1-c1cnn(-c2cccc(F)c2)c1C(F)(F)F` [Example I-98, 3-(3,4-dichlorophenyl)-5-(1-(3-fluorophenyl)-5-(trifluoromethyl)-1H-pyrazol-4-yl)-N-methylisoxazole-4-carboxamide], for which the IC50 in test [1] (setting [4]) was 1000 to 10000 nM.
